From publication PMC3898987 (Bioorganic & Medicinal Chemistry, 2013)
Residue numbers refer to the chain shown, from its start. Values joined by “and” are separate entries in the source; they are usually repeats but may differ in a detail not shown here. Equal entries are not always repeated.

Key:
Test in all cases: FlexStation membrane potential dye functional assay, HEK293 cells
Format in all cases: cell-based
Set-up in all cases: expressed in transfected cells; host or cells: HEK293
5-HT3A receptor Y73S = molecular target: T1, 5-HT3A receptor Y73S (Homo sapiens, UniProt P46098, Y68S); conditions: 5-HT3A Y73S
T1 sequence (P46098 24-478 Y68S): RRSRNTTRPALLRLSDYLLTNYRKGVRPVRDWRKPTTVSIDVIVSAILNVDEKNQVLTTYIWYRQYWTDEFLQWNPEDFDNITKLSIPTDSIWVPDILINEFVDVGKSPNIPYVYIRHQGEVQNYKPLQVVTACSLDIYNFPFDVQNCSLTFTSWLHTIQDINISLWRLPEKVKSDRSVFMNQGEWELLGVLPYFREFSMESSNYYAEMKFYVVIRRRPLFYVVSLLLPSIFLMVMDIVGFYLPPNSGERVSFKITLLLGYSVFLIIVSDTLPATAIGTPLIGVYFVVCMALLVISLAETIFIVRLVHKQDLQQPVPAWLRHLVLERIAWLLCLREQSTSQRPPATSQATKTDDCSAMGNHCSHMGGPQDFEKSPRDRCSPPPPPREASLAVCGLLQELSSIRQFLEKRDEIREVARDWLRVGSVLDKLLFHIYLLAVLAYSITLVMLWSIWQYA
Experimental: (§1) Human embryonic kidney (HEK) 293 cells were cultured on 90 mm tissue culture plates at 37 °C and 7% CO2 in a humidified atmosphere. They were grown in DMEM:F12 (Dulbecco’s Modified Eagle’s Medium/Nutrient Mix F12 (1:1)) with GlutaMAX I™ containing 10% fetal calf serum and passaged when confluent. […] For FlexStation assays, transfected cells were plated on 96-well plates and incubated 1–2 days before assay.
(§2) Fluorometric studies were undertaken using a FlexStation® (Molecular Devices, Sunnyvale, CA, USA) as previously described.[11]
(§3) Fluorescence was measured every 2 s for 200 s. […] Concentration–response and inhibition curves were obtained for each mutant, and the fluorescence values were normalized to the maximal response.

WT 5-HT3AB receptor = molecular target: T2, WT 5-HT3AB receptor (Homo sapiens, UniProt O95264+P46098)
T2 sequence (P46098 24-478): T1 sequence (P46098 24-478 Y68S) with S45Y
T2 sequence (O95264 22-441): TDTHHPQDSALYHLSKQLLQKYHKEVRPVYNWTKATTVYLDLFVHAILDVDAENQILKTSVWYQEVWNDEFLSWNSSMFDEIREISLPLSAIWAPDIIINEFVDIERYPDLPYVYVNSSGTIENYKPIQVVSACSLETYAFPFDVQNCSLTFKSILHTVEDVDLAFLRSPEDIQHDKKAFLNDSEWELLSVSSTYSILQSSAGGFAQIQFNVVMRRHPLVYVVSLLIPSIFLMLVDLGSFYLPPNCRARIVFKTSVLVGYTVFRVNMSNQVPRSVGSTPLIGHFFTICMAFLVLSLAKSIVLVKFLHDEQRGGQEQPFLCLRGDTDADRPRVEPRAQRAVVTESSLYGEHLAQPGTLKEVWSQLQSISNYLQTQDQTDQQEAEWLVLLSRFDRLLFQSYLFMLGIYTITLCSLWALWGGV
Experimental: as §1, §2, §3

5-HT3A receptor D165K = molecular target: T3, 5-HT3A receptor D165K (Homo sapiens, UniProt P46098, D160K); conditions: 5-HT3A D165K
T3 sequence (P46098 24-478 D160K): T1 sequence (P46098 24-478 Y68S) with S45Y, D137K
Experimental: as §1, §2, §3

5-HT3A receptor F130A = molecular target: T4, 5-HT3A receptor F130A (Homo sapiens, UniProt P46098, F125A); conditions: 5-HT3A F130A
T4 sequence (P46098 24-478 F125A): T1 sequence (P46098 24-478 Y68S) with S45Y, F102A
Experimental: as §1, §2, §3

[1] = inhibition of 5-HT (EC50 concentration) response, 45 min preincubation

SMILES: NCCc1c[nH]c2ccc(O)cc12 [5-HT, serotonin]
- Hill Coefficient (5-HT3A receptor Y73S; 5-HT concentration-response): 2.0 ± 0.3
- Hill Coefficient (WT 5-HT3AB receptor; 5-HT concentration-response): 1.3 and 1.3 ± 0.2
- Hill Coefficient (5-HT3A receptor D165K; 5-HT concentration-response): 3.0 ± 0.3
- Hill Coefficient (5-HT3A receptor F130A; 5-HT concentration-response): 1.5 ± 0.2

SMILES: O=C1c2cccc3c2[C@H](CCC3)CN1[C@@H]1CN2CCC1CC2 [Palonosetron]
- IC50 (5-HT3A receptor Y73S; [1]): 3.64 ± 1.1 nM
- IC50 (WT 5-HT3AB receptor; [1]): 0.88 ± 0.15 nM
- IC50 (5-HT3A receptor D165K; [1]): 1.3 ± 0.43 nM
- IC50 (5-HT3A receptor F130A; [1]): 4.4 ± 1.8 nM
